Laboratory results published in ChEMBL document CHEMBL1143033, “Nodulisporol and Nodulisporone, novel specific inhibitors of human DNA polymerase lambda from a fungus, Nodulisporium sp” (Bioorg Med Chem, 2007).

What was measured:
DNA polymerase beta = DNA polymerase beta (Rattus norvegicus, UniProt P06766); test: Inhibition of rat DNA polymerase beta
DNA polymerase lambda = biological target: T1, DNA polymerase lambda (Homo sapiens, UniProt Q9UGP5); test: Inhibition of human DNA polymerase lambda
T1 sequence (Q9UGP5 whole entry): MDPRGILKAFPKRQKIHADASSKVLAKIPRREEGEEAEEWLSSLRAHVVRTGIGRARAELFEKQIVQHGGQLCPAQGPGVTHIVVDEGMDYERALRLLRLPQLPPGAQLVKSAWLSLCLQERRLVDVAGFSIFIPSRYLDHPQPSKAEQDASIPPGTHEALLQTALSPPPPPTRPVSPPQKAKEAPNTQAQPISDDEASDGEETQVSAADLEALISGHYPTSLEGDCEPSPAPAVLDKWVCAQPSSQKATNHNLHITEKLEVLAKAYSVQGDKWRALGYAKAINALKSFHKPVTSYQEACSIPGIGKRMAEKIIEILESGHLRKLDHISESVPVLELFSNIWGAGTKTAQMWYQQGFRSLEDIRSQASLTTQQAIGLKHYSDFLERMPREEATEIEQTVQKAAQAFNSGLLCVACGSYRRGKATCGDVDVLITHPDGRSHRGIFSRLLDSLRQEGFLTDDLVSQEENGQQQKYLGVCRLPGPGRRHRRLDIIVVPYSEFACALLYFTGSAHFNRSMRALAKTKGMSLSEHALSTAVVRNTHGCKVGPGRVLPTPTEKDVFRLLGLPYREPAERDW

[1] = biological target: T2, DNA polymerase delta catalytic subunit (Homo sapiens, UniProt P28340); test: Inhibition of human DNA polymerase delta
T2 sequence (P28340 whole entry): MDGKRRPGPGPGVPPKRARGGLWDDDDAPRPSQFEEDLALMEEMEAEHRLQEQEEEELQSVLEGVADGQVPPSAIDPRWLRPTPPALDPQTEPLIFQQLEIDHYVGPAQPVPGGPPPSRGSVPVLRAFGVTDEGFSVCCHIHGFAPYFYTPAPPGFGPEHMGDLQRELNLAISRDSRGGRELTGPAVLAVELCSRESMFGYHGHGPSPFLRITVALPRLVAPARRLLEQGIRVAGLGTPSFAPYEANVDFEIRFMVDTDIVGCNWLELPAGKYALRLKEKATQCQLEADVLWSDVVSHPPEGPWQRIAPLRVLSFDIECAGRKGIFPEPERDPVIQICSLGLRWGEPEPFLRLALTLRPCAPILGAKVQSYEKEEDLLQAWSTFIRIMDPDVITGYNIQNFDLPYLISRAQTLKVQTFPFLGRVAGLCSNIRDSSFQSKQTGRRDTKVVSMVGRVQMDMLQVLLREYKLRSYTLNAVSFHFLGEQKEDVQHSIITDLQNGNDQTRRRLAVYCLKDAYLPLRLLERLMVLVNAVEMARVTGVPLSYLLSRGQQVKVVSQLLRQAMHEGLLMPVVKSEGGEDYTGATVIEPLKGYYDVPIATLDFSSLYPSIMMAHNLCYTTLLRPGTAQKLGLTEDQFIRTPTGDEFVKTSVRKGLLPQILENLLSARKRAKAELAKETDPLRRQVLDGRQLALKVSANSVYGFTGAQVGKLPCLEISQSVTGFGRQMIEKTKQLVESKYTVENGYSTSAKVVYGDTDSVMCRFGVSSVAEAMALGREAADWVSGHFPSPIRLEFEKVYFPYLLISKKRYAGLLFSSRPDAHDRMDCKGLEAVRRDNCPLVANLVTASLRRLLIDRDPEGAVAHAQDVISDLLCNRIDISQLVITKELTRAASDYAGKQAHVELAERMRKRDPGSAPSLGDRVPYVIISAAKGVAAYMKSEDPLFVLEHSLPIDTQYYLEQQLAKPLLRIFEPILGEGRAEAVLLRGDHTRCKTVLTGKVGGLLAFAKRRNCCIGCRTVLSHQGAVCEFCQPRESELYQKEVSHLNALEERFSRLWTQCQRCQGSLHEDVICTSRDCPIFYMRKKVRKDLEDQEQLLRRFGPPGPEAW

[2] = Inhibition of human DNA polymerase gamma
[3] = Inhibition of human DNA polymerase epsilon
[4] = Inhibition of calf DNA polymerase alpha; parameters: species or system Bos taurus

Row | Compound | IC50 (DNA polymerase beta) [µM] | IC50 (DNA polymerase lambda) [µM] | IC50 [1] [µM] | IC50 [2] [µM] | IC50 [3] [µM] | IC50 [4] [µM]
1 | COc1ccc(C)c2c1C(=O)OC(C)C2 (configuration not stated) | > 1000 | 49 | > 1000 | > 1000 | > 1000 | > 1000
2 | CC1Cc2cccc(O)c2C(=O)O1 (configuration not stated) [MELLEIN] | > 1000 | 316 | > 1000 | > 1000 | > 1000 | > 1000
3 | COc1cccc2c1C(=O)OC(C)C2 (configuration not stated) | > 1000 | 180 | > 1000 | > 1000 | > 1000 | > 1000
4 | COc1cccc2c1C(=O)CCC2O (configuration not stated) [NODULISPORONE] | > 1000 | 82 | > 1000 | > 1000 | > 1000 | > 1000

Continued, values first:

Row | IC50 (DNA polymerase beta) [µM] | IC50 (DNA polymerase lambda) [µM] | IC50 [1] [µM] | IC50 [2] [µM] | IC50 [3] [µM] | IC50 [4] [µM] | Compound
5 | > 1000 | 454 | > 1000 | > 1000 | > 1000 | > 1000 | COc1cc(O)c2c(=O)c(CO)c(C)oc2c1
6 | > 1000 | 275 | > 1000 | > 1000 | > 1000 | > 1000 | CC1Cc2c(C=O)ccc(O)c2C(=O)O1 (configuration not stated)
7 | > 1000 | 168 | > 1000 | > 1000 | > 1000 | > 1000 | COc1cccc2c1C(O)CCC2O (configuration not stated) [NODULISPOROL]
